# Source: patent US20040091960A1, “Novel physiologically active peptides and use thereof” (priority 2000, published 2004)
# System: LH secretion
# Experiment: LH secretion promoting action (LH blood level)
# Type: in vivo
# Settings: statement only, no experiment described
substance,measurement,value
"polypeptide of the present invention: mouse matured GALR2 ligand, amino acid sequence SEQ ID NO: 1, ligand peptide for galanin receptor (APAHRGRGGWTLNSAGYLLGPVLPVSSKADQGRKRDSALEILDLWKIIDGLPYSHSPRMT; Mouse)",LH secretion promoting action (LH blood level increasing action),specific LH blood level increasing action
